In US8263649B2, “Benzofuran type derivatives, a composition comprising the same for treating or preventing cognitive dysfunction and the use thereof” (Medifron DBT Co., Ltd., priority 2006, dated 2012):

How the values were obtained:
[1] = test system: A 40; experiment: ELISA of beta-amyloid in brain of transgenic mice (A 40); format: in vivo, mouse; conditions: APPswe mice treated for 4 months; no significance statistically; FIG. 13
Method: (§1) 13 months old dementia model male mice expressing APPswe was used in the experiment and the mice was divided into two groups, i.e., control group consisting of 2 mice and test groups consisting of 4 mice. Each mouse had been fed with the feed mixed with 3 mg of compound IIb everyday for 4 months.
At the end of behavior test, the brain of mouse was delivered and the left hemisphere was frozen to be used as a cryo-section material. The remaining right hemisphere was used to measure the formation of beta-amyloid according to the procedure disclosed in the literature (J. Neurosci, 21(12), pp 4183-4187, 2001). […]
The amount of beta-amyloid in the brains of mice was determined by […] ELISA method according to the manual provided from Biosource Co and ELISA kit (KHB 3482, Biosource Co.) was used in the experiment. […] The level of color reaction was determined at 450 nm using by spectrophotometer and the absolute amount of beta-amyloid in the samples was transformed by comparing with standard value. The brain of the mice treated with the compound 18b for 4 months was delivered and the amount of beta-amyloid in supernatant obtained from the dissolved brain tissue was determined according to ELISA method.

[2] = test system: ChAT positive neuron; experiment: ChAT antibody staining of brain sections of transgenic mice; format: in vivo, mouse; conditions: FIG. 15
Method: as §1
Four tissue sections per mouse were added to PBST to flocculate and then anti-ChAT was added thereto with a ratio of 1:100. The solution was reacted together for overnight at 4° C. and the tissues were washed with PBST. Secondary antibody (HRP conjugated […] IgG antibody) was added thereto and mixed together with the mixed ratio of 1:1000 at room temperature one hour before the reaction.
After washing again with PBST, the tissues were stained to brown color with DAB kit as a staining agent. The stained tissues were photographed using by optical microscope connecting with […] camera and then the number of the ChAT positive neuron in the tissues was determined.

SMILES: COCCCc1ccc2oc(-c3ccc(OC)c(OC)c3)cc2c1 [Compound 18b, 2-(3,4-dimethoxy-phenyl)-5-(3-methoxy-propyl)-benzofuran]
- amount of A 40 in brain (ELISA) [1]: slightly reduced
- number of neuron (ChAT positive) in brain [2]: slightly increased
